Laboratory results as given in patent US11535629B2, “Dioxoloisoquinolinone derivatives and use thereof” (HANMI PHARMACEUTICAL CO., LTD., priority 2020, dated 2022).

Test system: KARPAS-422 cells
Test: Cell growth inhibition test (CTG method)
Type: cell-based
Settings: Homo sapiens, KARPAS-422, 168 h, KARPAS-422 (EZH2^Y641N mutant), culturing for 7 days; read-out: Cell growth inhibitory activity (GI50, nM) KARPAS-422 (EZH2^Y641N mutant)
Method: The cultured cell strain was prepared at 1.8×10^4 cells/400 μL and placed in a 48-well plate.

GI50 [nM] | SMILES
7.2 | Cc1cc(C)c(CN2CCc3c(c(C)c4c(c3-c3ccoc3)O[C@](C)([C@H]3CC[C@H](N(C)C)CC3)O4)C2=O)c(=O)[nH]1 [Compound 56, (R)-6-((4,6-dimethyl-2-oxo-1,2-dihydropyridin-3-yl)methyl)-2-(trans-4-(dimethylamino)cyclohexyl)-9-(furan-3-yl)-2,4-dimethyl-7,8-dihydro-[1,3]dioxolo[4,5-g]isoquinolin-5(6H)-one]
> 1000 | Cc1cc(C)c(CN2CCc3c(c(C)c4c(c3-c3ccoc3)O[C@@](C)([C@H]3CC[C@H](N(C)C)CC3)O4)C2=O)c(=O)[nH]1 [Compound 57, (S)-6-((4,6-dimethyl-2-oxo-1,2-dihydropyridin-3-yl)methyl)-2-(trans-4-(dimethylamino)cyclohexyl)-9-(furan-3-yl)-2,4-dimethyl-7,8-dihydro-[1,3]dioxolo[4,5-g]isoquinolin-5(6H)-one]
28 | Cc1cc(C)c(CN2CCc3c(c(C)c4c(c3-c3ccco3)O[C@](C)([C@H]3CC[C@H](N)CC3)O4)C2=O)c(=O)[nH]1 [Compound 58, (R)-2-(trans-4-aminocyclohexyl)-6-((4,6-dimethyl-2-oxo-1,2-dihydropyridin-3-yl)methyl)-9-(furan-2-yl)-2,4-dimethyl-7,8-dihydro-[1,3]dioxolo[4,5-g]isoquinolin-5(6H)-one]
> 1000 | Cc1cc(C)c(CN2CCc3c(c(C)c4c(c3-c3ccco3)O[C@@](C)([C@H]3CC[C@H](N)CC3)O4)C2=O)c(=O)[nH]1 [Compound 59, (S)-2-(trans-4-aminocyclohexyl)-6-((4,6-dimethyl-2-oxo-1,2-dihydropyridin-3-yl)methyl)-9-(furan-2-yl)-2,4-dimethyl-7,8-dihydro-[1,3]dioxolo[4,5-g]isoquinolin-5(6H)-one]
19 | CN[C@H]1CC[C@H]([C@]2(C)Oc3c(C)c4c(c(-c5ccco5)c3O2)CCN(Cc2c(C)cc(C)[nH]c2=O)C4=O)CC1 [Compound 60, (R)-6-((4,6-dimethyl-2-oxo-1,2-dihydropyridin-3-yl)methyl)-9-(furan-2-yl)-2,4-dimethyl-2-(trans-4-(methylamino)cyclohexyl)-7,8-dihydro-[1,3]dioxolo[4,5-g]isoquinolin-5(6H)-one]
> 1000 | CN[C@H]1CC[C@H]([C@@]2(C)Oc3c(C)c4c(c(-c5ccco5)c3O2)CCN(Cc2c(C)cc(C)[nH]c2=O)C4=O)CC1 [Compound 61, (S)-6-((4,6-dimethyl-2-oxo-1,2-dihydropyridin-3-yl)methyl)-9-(furan-2-yl)-2,4-dimethyl-2-(trans-4-(methylamino)cyclohexyl)-7,8-dihydro-[1,3]dioxolo[4,5-g]isoquinolin-5(6H)-one]
1.3 to 15 | Cc1cc(C)c(CNC(=O)c2cc(Cl)c3c(c2C)O[C@@](C)([C@H]2CC[C@H](N(C)C)CC2)O3)c(=O)[nH]1 [Control B, (2R)-7-chloro-2-[trans-4-(dimethylamino)cyclohexyl]-N-[(4,6-dimethyl-2-oxo-1,2-dihydropyridin-3-yl)methyl]-2,4-dimethyl-1,3-benzodioxole-5-carboxamide, reference compound]

Continued, molecule first:

SMILES | GI50 [nM]
Cc1cc(C)c(CN2CCc3c(c(C)c4c(c3-c3ccc(F)nc3)O[C@](C)([C@H]3CC[C@H](N(C)C)CC3)O4)C2=O)c(=O)[nH]1 [Compound 36, (R)-6-((4,6-dimethyl-2-oxo-1,2-dihydropyridin-3-yl)methyl)-2-(trans-4-(dimethylamino)cyclohexyl)-9-(6-fluoropyridin-3-yl)-2,4-dimethyl-7,8-dihydro-[1,3]dioxolo[4,5-g]isoquinolin-5(6H)-one] | 5.8
Cc1cc(C)c(CN2CCc3c(c(C)c4c(c3-c3ccc(F)nc3)O[C@@](C)([C@H]3CC[C@H](N(C)C)CC3)O4)C2=O)c(=O)[nH]1 [Compound 37, (S)-6-((4,6-dimethyl-2-oxo-1,2-dihydropyridin-3-yl)methyl)-2-(trans-4-(dimethylamino)cyclohexyl)-9-(6-fluoropyridin-3-yl)-2,4-dimethyl-7,8-dihydro-[1,3]dioxolo[4,5-g]isoquinolin-5(6H)-on] | > 1000
Cc1cc(C)c(CN2CCc3c(c(C)c4c(c3-c3cnn(C)c3)O[C@](C)([C@H]3CC[C@H](N(C)C)CC3)O4)C2=O)c(=O)[nH]1 [Compound 38, (R)-6-((4,6-dimethyl-2-oxo-1,2-dihydropyridin-3-yl)methyl)-2-(trans-4-(dimethylamino)cyclohexyl)-2,4-dimethyl-9-(1-methyl-1H-pyrazol-4-yl)-7,8-dihydro-[1,3]dioxolo[4,5-g]isoquinolin-5(6H)-on] | 5.8
Cc1cc(C)c(CN2CCc3c(c(C)c4c(c3-c3cnn(C)c3)O[C@@](C)([C@H]3CC[C@H](N(C)C)CC3)O4)C2=O)c(=O)[nH]1 [Compound 39, (S)-6-((4,6-dimethyl-2-oxo-1,2-dihydropyridin-3-yl)methyl)-2-(trans-4-(dimethylamino)cyclohexyl)-2,4-dimethyl-9-(1-methyl-1H-pyrazol-4-yl)-7,8-dihydro-[1,3]dioxolo[4,5-g]isoquinolin-5(6H)-one] | > 1000
Cc1cc(C)c(CN2CCc3c(c(C)c4c(c3-c3ccc(C)o3)O[C@@](C)([C@H]3CC[C@H](N(C)C)CC3)O4)C2=O)c(=O)[nH]1 [Compound 41, (S)-6-((4,6-dimethyl-2-oxo-1,2-dihydropyridin-3-yl)methyl)-2-(trans-4-(dimethylamino)cyclohexyl)-2,4-dimethyl-9-(5-methylfuran-2-yl)-7,8-dihydro-[1,3]dioxolo[4,5-g]isoquinolin-5(6H)-one] | > 1000
Cc1cc(C)c(CN2CCc3c(c(C)c4c(c3-c3ccc(C)s3)O[C@](C)([C@H]3CC[C@H](N(C)C)CC3)O4)C2=O)c(=O)[nH]1 [Compound 42, (R)-6-((4,6-dimethyl-2-oxo-1,2-dihydropyridin-3-yl)methyl)-2-(trans-4-(dimethylamino)cyclohexyl)-2,4-dimethyl-9-(5-methylthiophen-2-yl)-7,8-dihydro-[1,3]dioxolo[4,5-g]isoquinolin-5(6H)-one] | 5.7
Cc1cc(C)c(CN2CCc3c(c(C)c4c(c3-c3ccc(C)s3)O[C@@](C)([C@H]3CC[C@H](N(C)C)CC3)O4)C2=O)c(=O)[nH]1 [Compound 43, (S)-6-((4,6-dimethyl-2-oxo-1,2-dihydropyridin-3-yl)methyl)-2-(trans-4-(dimethylamino)cyclohexyl)-2,4-dimethyl-9-(5-methylthiophen-2-yl)-7,8-dihydro-[1,3]dioxolo[4,5-g]isoquinolin-5(6H)-one] | > 1000
Cc1cc(C)c(CN2CCc3c(c(C)c4c(c3-c3cccnc3)O[C@@](C)([C@H]3CC[C@H](N(C)C)CC3)O4)C2=O)c(=O)[nH]1 [Compound 45, (S)-6-((4,6-dimethyl-2-oxo-1,2-dihydropyridin-3-yl)methyl)-2-(trans-4-(dimethylamino)cyclohexyl)-2,4-dimethyl-9-(pyridin-3-yl)-7,8-dihydro-[1,3]dioxolo[4,5-g]isoquinolin-5(6H)-one] | > 1000
Cc1cc(C)c(CN2CCc3c(c(C)c4c(c3-c3cncnc3)O[C@](C)([C@H]3CC[C@H](N(C)C)CC3)O4)C2=O)c(=O)[nH]1 [Compound 46, (R)-6-((4,6-dimethyl-2-oxo-1,2-dihydropyridin-3-yl)methyl)-2-(trans-4-(dimethylamino)cyclohexyl)-2,4-dimethyl-9-(pyrimidin-5-yl)-7,8-dihydro-[1,3]dioxolo[4,5-g]isoquinolin-5(6H)-one] | 7
Cc1cc(C)c(CN2CCc3c(c(C)c4c(c3-c3cncnc3)O[C@@](C)([C@H]3CC[C@H](N(C)C)CC3)O4)C2=O)c(=O)[nH]1 [Compound 47, (S)-6-((4,6-dimethyl-2-oxo-1,2-dihydropyridin-3-yl)methyl)-2-(trans-4-(dimethylamino)cyclohexyl)-2,4-dimethyl-9-(pyrimidin-5-yl)-7,8-dihydro-[1,3]dioxolo[4,5-g]isoquinolin-5(6H)-one] | > 1000
Cc1cc(C)c(CN2CCc3c(c(C)c4c(c3-c3cccn3C)O[C@@](C)([C@H]3CC[C@H](N(C)C)CC3)O4)C2=O)c(=O)[nH]1 [Compound 49, (S)-6-((4,6-dimethyl-2-oxo-1,2-dihydropyridin-3-yl)methyl)-2-(trans-4-(dimethylamino)cyclohexyl)-2,4-dimethyl-9-(1-methyl-1H-pyrrol-2-yl)-7,8-dihydro-[1,3]dioxolo[4,5-g]isoquinolin-5 (6H)-one] | > 1000
Cc1cc(C)c(CN2CCc3c(c(C)c4c(c3-c3ccsc3)O[C@@](C)([C@H]3CC[C@H](N(C)C)CC3)O4)C2=O)c(=O)[nH]1 [Compound 51, (S)-6-((4,6-dimethyl-2-oxo-1,2-dihydropyridin-3-yl)methyl)-2-(trans-4-(dimethylamino)cyclohexyl)-2,4-dimethyl-9-(thiophen-3-yl)-7,8-dihydro-[1,3]dioxolo[4,5-g]isoquinolin-5(6H)-one] | > 1000
Cc1cc(C)c(CN2CCc3c(c(C)c4c(c3-c3cncs3)O[C@@](C)([C@H]3CC[C@H](N(C)C)CC3)O4)C2=O)c(=O)[nH]1 [Compound 53, (S)-6-((4,6-dimethyl-2-oxo-1,2-dihydropyridin-3-yl)methyl)-2-(trans-4-(dimethylamino)cyclohexyl)-2,4-dimethyl-9-(thiazol-5-yl)-7,8-dihydro-[1,3]dioxolo[4,5-g]isoquinolin-5(6H)-one] | > 1000
Cc1cc(C)c(CN2CCc3c(c(C)c4c(c3-n3ccnc3)O[C@](C)([C@H]3CC[C@H](N(C)C)CC3)O4)C2=O)c(=O)[nH]1 [Compound 54, (R)-6-((4,6-dimethyl-2-oxo-1,2-dihydropyridin-3-yl)methyl)-2-(trans-4-(dimethylamino)cyclohexyl)-9-(1H-Imidazol-1-yl)-2,4-dimethyl-7,8-dihydro-[1,3]dioxolo[4,5-g]isoquinolin-5(6H)-one] | 28
Cc1cc(C)c(CN2CCc3c(c(C)c4c(c3-n3ccnc3)O[C@@](C)([C@H]3CC[C@H](N(C)C)CC3)O4)C2=O)c(=O)[nH]1 [Compound 55, (S)-6-((4,6-dimethyl-2-oxo-1,2-dihydropyridin-3-yl)methyl)-2-(trans-4-(dimethylamino)cyclohexyl)-9-(1H-imidazol-1-yl)-2,4-dimethyl-7,8-dihydro-[1,3]dioxolo[4,5-g]isoquinolin-5(6H)-one] | > 1000
